According to patent publication US9504687B2, “Treating Bax(Δ)2-positive cancer with chemotherapies targeting caspase 8” (Mumetel, LLC, priority 2013, dated 2016):
Entries after “also recorded” stand apart in the source; their conditions may differ. Read-outs that look alike come from different tables or passages of the source. Where a SMILES comes first, the peptide text is derived from it. The star is where a group is joined. Cbz = O=C(OCc1ccccc1)*

Assays:
[1] = tested on: HCT116 isogenic subline clone #10 (BaxΔ2-positive); assay type: cell-based, human; conditions: Table 5 screening
Method: Colon cancer cell line HCT116 was obtained from American Type Culture Collection. The cell line was tested and authenticated by Genetica (Cincinnati. Ohio) before the experiments. Both HCT116 and Bax^−/− mouse embryonic fibroblasts (MEFs) cells were cultured in DMEM supplemented with 10% FBS. To isolate single cell population from HCT116 cells, cells were treated with 500 μM Indomethacin for 72 h to enrich Bax G7 population. Single-cell suspension was plated onto 96-well plates without Indomethacin. Single clones were recovered, expanded, and validated by both genomic sequencing and RT-PCR analysis.
However, the heterogeneity of different cell lines often adds complexity to data interpretation. […] For the initial screening, we selected a panel of different classes of commonly used chemotherapeutic drugs.

[2] = tested on: caspase-8; experiment: Immunoblotting for cleaved caspase-8 in chemodrug treated clone #10; assay type: cell-based, human; conditions: 5-FU (500 μM) or Adriamycin (4 μg/ml) 24 h
Method: (§1) FIG. 9. BaxΔ2 promotes apoptosis through activation of caspase-8. A, Cell death assay of HCT116 clone #10 and clone #28 cells treated with or without 5-FU (500 μM) or Adriamycin (Adr, 4 μg/ml) for 24 h in the presence of inhibitors (50 μM each) for caspase-3 (DEVD) SEQ ID NO: 4), caspase-8 (IETD) (SEQ ID NO: 5), caspase-1 (YVAD) (SEQ ID NO: 6), and caspase-9 (LEHD) (SEQ ID NO: 7) as indicated. ** P<0.01. inh., inhibitor. B, Caspase-3 assay of HCT116 clone #10 and #28 cells treated as described in (A). The activity of caspase-3 was measured using fluorogenic caspase-3 substrate DEVD-AFC (SEQ ID NO: 4) (50 μM) with a microplate spectrofluorometer. C, Immunoblotting analysis for the detection of cleaved casapase-8 in the chemodrug treated clone #10 and #28 cells with an anti-cleaved caspase-8 antibody.
(§2) Bax typically targets the mitochondria upon activation and results in the activation of the caspase-9 and caspase-3 cascade for cell death. To determine the underlying mechanism by which BaxΔ2 promoted cell death, HCT116 clones #10 and #28 were treated with Adriamycin or 5-FU in the presence of different caspase inhibitors. […] The caspase-3 activity was confirmed by the caspase-3 fluorometric assay (FIG. 9B). […]

[3] = tested on: HCT116-BP10 (BaxΔ2 positive) versus HCT116-BN28 (BaxΔ2 negative) sublines; experiment: Cell death assay of HCT116 sublines treated with chemotherapeutic drugs for 36 hours; assay type: cell-based, human; conditions: Adriamycin (40 ug/ml) or 5-FU (500 ug/ml), compared with BaxΔ2 negative subline
Method: FIG. 8. […] Adr, Adriamycin; Etop, Etoposide; 5-FU, 5-fluorouracil; Contr, control.
BaxΔ2 positive (HCT116-BP10) and negative (HCT116-BN28) sublines were treated with Adriamycin (40 ug/ml) or 5-FU (500 ug/ml) for 36 hours in a regular cell culture medium. […] Both Adriamycin and Etoposide are in the same category as topoisomerase inhibitors; and both 5-FU and Cytoxan are in the same class of alkaloid drugs.

[4] = tested on: Bid; experiment: Immunoblotting analysis of cleaved Bid in clone #10; assay type: cell-based, human; conditions: BaxΔ2-positive clone #10 cells
Method: (§3) FIG. 10. The Bid-dependent mitochondrial death pathway is not essential for the onset of chemodrug-induced apoptosis in BaxΔ2-positive cells. A, Immunoblotting analysis of cleaved Bid in HCT116 clone #10 and #28 cells treated with or without 5-FU (500 μM) or Adriamycin ([…]) as indicated. The intensities of truncated Bid bands were quantitated relevant to the actin control and are presented as arbitrary numbers. B, Cell death assay of HCT116 clone #10 cells treated with 5-FU (500 μM) in the presence of a Bid specific inhibitor (BI-6C9; 10 μM) or Bid siRNA. C, Cell death assay of clone #10 cells treated with 5-FU (500 μM) in the presence of a caspase-9 inhibitor (LEHD (SEQ ID NO: 7); 50 μM) or transfected with a caspase-9 dominant negative (D/N) mutant construct. D, Representative images of JC-1 staining. Carbonyl cyanide 4-(trifluoromethoxy) phenylhydrazone (FCCP; 100 μM) was used as a positive control. JC-1 monomer green fluorescence as observed by excitation with 488 nm and emission with 529 nm (top panel). JC-1 aggregate red fluorescence as observed by excitation at 546 nm and emission at 590 nm (bottom panel).
(§4) Caspase-8 is one of the initiator caspases in the extrinsic death receptor pathway. […] We next determined if the Bid-dependent mitochondrial death pathway was required for BaxΔ2 to promote apoptosis. […]

[5] = tested on: colon cancer LoVo cells (G7/G9); conditions: previously shown; cited from earlier work
[6] = tested on: prostate cancer 104-R cells (G7/G7); conditions: previously shown; cited from earlier work
[7] = tested on: BaxΔ2 protein; experiment: Immunoblotting of BaxΔ2 protein after MG-132 treatment, clone #10; assay type: cell-based, human; conditions: clone #10 (HCT116-BP10); MG-132 10 μM for 8 h
Method: (§5) FIG. 7. Generation and characterization of the isogenic subline cells with the different Bax microsatellite status. A, Schematic diagram of generating the HCT116 sublines. Cells were treated with 500 μM Indomethacin for 72 h. A single cell suspension was plated into 96-well plates without Indomethacin. Bax microsatellite statuses (G8/G8, G8/G7, or G7/G7) of each sublines were determined by genomic sequencing as described in the methods. B, RT-PCR analysis of Bax alternative splicing and BaxΔ2 production. The cDNAs were generated from HCT116 clones #10 (G7/G7 genotype) and clone #28 (G8/G7 genotype) with a set of primers that cover Bax exon 1 through exon 6, or primers specific for BaxΔ2 as described in the methods. The PCR products of Baxα and BaxΔ2 plasmid DNA were used as controls. […] Total 1×10^4 cells were seeded onto 24-well plates and the cell numbers were counted every 24 h up to 96 h. […]
(§6) We then determined the expression of endogenous BaxΔ2 proteins in the HCT116 clones #10 and #28 subline cells using a specific anti-BaxΔ2 antibody. […] Of note, both clone #10 and clone #28 had no detectable parental Baxα proteins, as analyzed by immunoblotting using several anti-Baxα antibodies (FIG. 7C and data not shown).

[8] = tested on: BaxΔ2 protein; experiment: Immunoblotting of BaxΔ2 protein after MG-132 treatment, clone #28; assay type: cell-based, human; conditions: clone #28 (HCT116-BN28); MG-132 10 μM for 8 h
Method: as §5, §6

[9] = tested on: HCT116 clone #10; experiment: Cell death assay of clone #10 treated with 5-FU with Bid or caspase-9 inhibition; assay type: cell-based, human; conditions: clone #10 treated with 5-FU (500 μM); BI-6C9 10 μM; LEHD 50 μM
Method: as §3, with “(bottom panel). […]” for “(bottom panel).”
as §4

[10] = tested on: HCT116 clone #10; experiment: Cell death assay with chemodrug in the presence of caspase inhibitors; assay type: cell-based, human; conditions: clone #10 treated with 5-FU (500 μM) or Adriamycin (4 μg/ml) 24 h; inhibitors 50 μM each
Method: as §1, §2

## O=c1[nH]cc(F)c(=O)[nH]1 [5-FU, 5-Fluorouracil]
[1]
  Sensitivity of BaxΔ2-positive clone #10 compared with BaxΔ2-negative clone #28: highly sensitive; also recorded: selectively sensitive
[2]
  Caspase-8 activation (cleaved caspase-8 fragments 43 kDa and 18 kDa): activated
[3]
  Sensitivity of BaxΔ2 positive clone #10 cells to treatment (cell death assay): more sensitive
[4]
  Bid degradation (cleaved Bid): partially degraded

## COc1cccc2c1C(=O)c1c(O)c3c(c(O)c1C2=O)C[C@@](O)(C(=O)CO)C[C@@H]3O[C@H]1C[C@H](N)[C@H](O)[C@H](C)O1 [Doxorubicin, doxorubicin]
[1]; listed as Adriamycin
  Sensitivity of BaxΔ2-positive clone #10 compared with BaxΔ2-negative clone #28: more sensitive; also recorded: selectively sensitive
[5]
  Sensitivity to treatment compared with cancer cells with wild type Bax: more sensitive
[6]
  Sensitivity to treatment compared with cancer cells with wild type Bax: more sensitive
[2]
  Caspase-8 activation (cleaved caspase-8 fragments 43 kDa and 18 kDa): activated
[3]
  Sensitivity of BaxΔ2 positive clone #10 cells to treatment (cell death assay): more sensitive
[4]
  Bid degradation (cleaved Bid): partially degraded

## CC(C)C[C@@H](C=O)NC(=O)[C@H](CC(C)C)NC(=O)[C@H](CC(C)C)NC(=O)OCc1ccccc1 [MG-132] (Cbz-Leu-Leu-Leu-aldehyde)
[7]
  Detection of BaxΔ2 proteins after treatment: easily detected
[8]
  Detection of BaxΔ2 proteins after treatment: no detectable BaxΔ2 proteins

## Bid siRNA: Bid siRNA (5′GGGCAAAAGC UUACAAAUAUU3′) (SEQ ID NO: 47) (GGGCAAAAGCUUACAAAUAUU; listed as RNA, chemistry not given here)
[9]
  Effect on chemodrug-induced apoptosis: did not significantly affect

## Z-DEVD-FMK (N-Z, C-terminal fluoromethylketone) [caspase-3 inhibitor]
[10]
  Inhibition of chemodrug-induced apoptosis: effectively inhibited

## Z-IETD-FMK (N-Z, C-terminal fluoromethylketone) [caspase-8 inhibitor]
[10]
  Inhibition of chemodrug-induced apoptosis: effectively inhibited
